# Assay results taken from ChEMBL document CHEMBL1136480, “Successful shape-based virtual screening: the discovery of a potent inhibitor of the type I TGFbeta receptor kinase (TbetaRI)” (Bioorg Med Chem Lett, 2003).
# System: HepG2
# Assay: Inhibition of TGF-beta-induced expression of PAI-luciferase reporter in HepG2 cells
# Assay type: functional, cell-based
# Conditions: Homo sapiens
smiles,measurement,value
c1ccc(-c2n[nH]cc2-c2ccnc3ccccc23)nc1,IC50,0.06 µM
